Laboratory results as given in patent US4450269A, “Mono-5-substituted-3-chloro-4H-1,2,6-thiadiazin-4-one antifungal agents” (FMC Corporation, priority 1980, dated 1984).

Tests used:
Helminthosporium oryzae = test: Mycelial growth test; conditions: for Percent Fungus Growth Inhibition: HO, 72 hours; for inhibition at 5 ppm / inhibition at 10 ppm / inhibition at 20 ppm / inhibition at 40 ppm: Bipolaris oryzae, 72 h; for inhibition at 5 ppm: read-out: Percent Fungus Growth Inhibition, HO, 5 ppm, 72 hours; for inhibition at 10 ppm: read-out: Percent Fungus Growth Inhibition, HO, 10 ppm, 72 hours; for inhibition at 20 ppm: read-out: Percent Fungus Growth Inhibition, HO, 20 ppm, 72 hours; for inhibition at 40 ppm: read-out: Percent Fungus Growth Inhibition, HO, 40 ppm, 72 hours
Erysiphe polygoni = test: whole plant or invertebrate; conditions: foliar, 24 h, read-out: Percent Disease Control, curative, bean powdery mildew

| Compound | Percent Fungus Growth Inhibition (Helminthosporium oryzae; 5 ppm) [%] | Percent Fungus Growth Inhibition (Helminthosporium oryzae; 10 ppm) [%] | Percent Fungus Growth Inhibition (Helminthosporium oryzae; 20 ppm) [%] | Percent Fungus Growth Inhibition (Helminthosporium oryzae; 40 ppm) [%] | inhibition at 5 ppm (Helminthosporium oryzae) [%] | inhibition at 10 ppm (Helminthosporium oryzae) [%] | inhibition at 20 ppm (Helminthosporium oryzae) [%] | inhibition at 40 ppm (Helminthosporium oryzae) [%] | pest or weed control at 150 ppm (Erysiphe polygoni) [%] |
| --- | --- | --- | --- | --- | --- | --- | --- | --- | --- |
| 3-chloro-5-(bromophenoxy)-4H-1,2,6-thiadiazin-4-one [Compound 33] | 83 | 91 | 100 | 100 |  |  |  |  |  |
| O=c1c(Cl)nsnc1Oc1ccccc1 [Compound 2, 3-chloro-5-phenoxy-4H--1,2,6-thiadiazin-4-one] |  |  |  |  | 55 | 64 | 100 | 100 | 100 |
| Cc1ccc(Oc2nsnc(Cl)c2=O)cc1 [Compound 3, 3-chloro-5-(4-methylphenoxy)-4H--1,2,6-thiadiazin-4-one] |  |  |  |  | 55 | 64 | 100 | 100 | 0 |
| CC(C)(C)c1ccc(Oc2nsnc(Cl)c2=O)cc1 [Compound 4, 3-chloro-5-(4-tert-butylphnoxy)-4H--1,2,6-thiadiazin-4-one] |  |  |  |  | 0 | 0 | 24 | 33 | 100 |
| COc1ccc(Oc2nsnc(Cl)c2=O)cc1 [Compound 5, 3-chloro-5-(4-methoxyphenoxy)4H--1,2,6-thiadiazin-4-one] |  |  |  |  | 50 | 64 | 73 | 100 | 0 |
| CCCCOc1ccc(Oc2nsnc(Cl)c2=O)cc1 [Compound 6, 3-chloro-5-(4-n-butoxyphenoxy)-4H--1,2,6-thiadiazin-4-one] |  |  |  |  | 0 | 0 | 0 | 48 | 100 |
| CCOC(=O)c1ccc(Oc2nsnc(Cl)c2=O)cc1 [Compound 7, 3-chloro-5-(4-ethoxycarbonylphenoxy)-4H--1,2,6-thiadiazin-4-one] |  |  |  |  | 48 | 43 | 100 | 100 | 0 |
| CC(=O)Nc1ccc(Oc2nsnc(Cl)c2=O)cc1 [Compound 8, 5-(4-acetylaminophenoxy)-3-chloro-4H--1,2,6-thiadiazin-4-one] |  |  |  |  | 24 | 33 | 0 | 81 | 0 |
| O=c1c(Cl)nsnc1Oc1ccc([N+](=O)[O-])cc1 [Compound 9, 3-chloro-5-(4-nitrophenoxy)-4H--1,2,6-thiadiazin-4-one] |  |  |  |  | 50 | 82 | 86 | 100 | 0 |
| N#Cc1ccc(Oc2nsnc(Cl)c2=O)cc1 [Compound 10, 3-chloro-5-(4-cyanophenoxy)-4H--1,2,6-thiadiazin-4-one] |  |  |  |  | 57 | 52 | 100 | 100 | 0 |
| O=c1c(Cl)nsnc1Oc1ccc(F)cc1 [Compound 11, 3-chloro-5-(4-fluorophenoxy)-4H--1,2,6-thiadiazin-4-one] |  |  |  |  | 62 | 100 | 100 | 100 | 100 |
| O=c1c(Cl)nsnc1Oc1ccc(Cl)cc1 [Compound 12, 3-chloro-5-(4-chlorophenoxy)-4H--1,2,6-thiadiazin-4-one] |  |  |  |  | 59 | 59 | 100 | 100 | 50 |
| O=c1c(Cl)nsnc1Oc1cccc(Cl)c1 [Compound 13, 3-chloro-5-(3-chlorophenoxy)-4H--1,2,6-thiadiazin-4-one] |  |  |  |  | 71 | 86 | 76 | 81 | 100 |
| O=c1c(Cl)nsnc1Oc1ccccc1Cl [Compound 14, 3-chloro-5-(2-chlorophenoxy)-4H--1,2,6-thiadiazin-4-one] |  |  |  |  | 71 | 71 | 100 | 100 | 50 |
| O=c1c(Cl)nsnc1Oc1ccc(Br)cc1 [Compound 15, 3-chloro-5-(4-bromophenoxy)-4H--1,2,6-thiadiazin-4-one] |  |  |  |  | 57 | 90 | 95 | 100 | 100 |
| O=c1c(Cl)nsnc1Oc1ccc(Cl)c(Cl)c1 [Compound 16, 3-chloro-5-(3,4-dichlorophenoxy)-4H--1,2,6-thiadiazin-4-one] |  |  |  |  | 64 | 55 | 55 | 82 | 0 |
| O=c1c(Cl)nsnc1Oc1ccc(Cl)cc1Cl [Compound 17, 3-chloro-5-(2,4-dichlorophenoxy)-4H--1,2,6-thiadiazin-4-one] |  |  |  |  | 100 | 100 | 100 | 100 | 100 |
| O=c1c(Cl)nsnc1Oc1c(Cl)cccc1Cl [Compound 18, 3-chloro-5-(2,6-dichlorophenoxy)-4H--1,2,6-thiadiazin-4-one] |  |  |  |  | 86 | 86 | 100 | 100 | 100 |
